Data as given in ChEMBL document CHEMBL1201862, “PubChem BioAssay data set” (2004).
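A five-concentration, 48-hour dose response in 96-well plates underlies each endpoint, interpolated linearly between surrounding concentrations. GI50 marks 50% less growth.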 Activity calls are given as the source filed them. Cut-off read from the data, not from the text of the source: active = GI50 up to about 1.1 µM and inactive = higher.

Tests used:
Experiment in all cases: NCI anticancer screen, dose series, 48 h
A549 = tested on: A549
CCRF-CEM = tested on: CCRF-CEM
EKVX = tested on: EKVX
HCT-15 = tested on: HCT-15
Hs-578T = tested on: Hs-578T
K562 = tested on: K562
M14 = tested on: M14
MCF7 = tested on: MCF7
MDA-MB-435 = tested on: MDA-MB-435
Malme-3M = tested on: Malme-3M
RPMI-8226 = tested on: RPMI-8226
SF-539 = tested on: SF-539
SK-MEL-5 = tested on: SK-MEL-5
SK-OV-3 = tested on: SK-OV-3
SN12C = tested on: SN12C
SNB-75 = tested on: SNB-75
SR = tested on: SR
T47D = tested on: T47D
U-251 = tested on: U-251
OVCAR-4 = tested on: OVCAR-4

Measured: GI50

C/C=C/C(C#N)(Cc1ccccc1)OP1(=O)OC(c2ccccc2)C(C)N1C (configuration not stated)
79.6 µM: HCT-15
inactive: A549 66.4 µM | CCRF-CEM 19.4 µM | EKVX 71.6 µM | Hs-578T 89.5 µM | K562 38.5 µM | M14 > 100 µM | MCF7 54.2 µM | MDA-MB-435 48.4 µM | Malme-3M > 100 µM | RPMI-8226 33 µM | SF-539 > 100 µM | SK-MEL-5 48.9 µM | SK-OV-3 > 100 µM | SN12C 81.7 µM | SNB-75 > 100 µM | SR 36 µM | T47D 47.9 µM | U-251 88.5 µM

O=C1C(c2ccccc2)=[N+]([O-])c2ccccc21
inactive: A549 19.9 µM | CCRF-CEM 4.83 µM | EKVX 15.1 µM | Hs-578T 29.8 µM | K562 3.15 µM | M14 12.4 µM | MCF7 1.64 µM | MDA-MB-435 3.37 µM | Malme-3M 17.4 µM | OVCAR-4 4.04 µM | RPMI-8226 14.9 µM | SF-539 18.8 µM | SK-MEL-5 11.1 µM | SK-OV-3 17.6 µM | SN12C 17.3 µM | SNB-75 17 µM | SR 5.6 µM | T47D 1.97 µM | U-251 10.5 µM
19.7 µM: HCT-15

COC(=O)c1c(O)ccc2c1c1c(n2Cc2ccc(OC)cc2)C(=O)c2ccccc2C1=O
3.74 µM: HCT-15
active: CCRF-CEM 0.128 µM | RPMI-8226 0.168 µM | SR 0.251 µM
inactive: A549 4.91 µM | EKVX 35.3 µM | Hs-578T 13.9 µM | K562 3.28 µM | M14 10.7 µM | MCF7 4.49 µM | MDA-MB-435 6.46 µM | Malme-3M 39.9 µM | OVCAR-4 12.3 µM | SF-539 14.4 µM | SK-OV-3 15.6 µM | SN12C 2.78 µM | SNB-75 15.1 µM | T47D 6.78 µM | U-251 8.67 µM

c1csc(-c2csc(-c3cccs3)c2)c1
27.7 µM: HCT-15
inactive: A549 30.8 µM | CCRF-CEM 49.2 µM | EKVX 39.8 µM | Hs-578T 51.3 µM | M14 58.1 µM | MCF7 8.85 µM | MDA-MB-435 25.8 µM | Malme-3M 51.8 µM | OVCAR-4 77.4 µM | RPMI-8226 24.3 µM | SF-539 > 100 µM | SK-MEL-5 18.7 µM | SK-OV-3 95.9 µM | SN12C 34.2 µM | SNB-75 50.5 µM | SR 23.5 µM | T47D 3.2 µM | U-251 77.4 µM

CO[C@H]1O[C@@H]2CO[C@@H](c3ccccc3)O[C@H]2[C@@H]2CC=CCC[C@]12O
active: Hs-578T 0.052 µM
inactive: A549 59.8 µM | CCRF-CEM 31 µM | EKVX 36.8 µM | K562 33.9 µM | M14 72.6 µM | MCF7 42.6 µM | MDA-MB-435 45.7 µM | Malme-3M 12.6 µM | OVCAR-4 57.3 µM | RPMI-8226 23.7 µM | SK-MEL-5 67.1 µM | SK-OV-3 > 100 µM | SN12C 61.8 µM | SNB-75 > 100 µM | SR 30.8 µM | T47D 94 µM | U-251 60.3 µM
39.6 µM: HCT-15

O=C(O)c1ccccc1CC1Cc2cc3c(cc2C1)CCC3
inactive: A549 95.1 µM | CCRF-CEM > 100 µM | EKVX > 100 µM | Hs-578T > 100 µM | K562 > 100 µM | M14 > 100 µM | MCF7 > 100 µM | MDA-MB-435 > 100 µM | Malme-3M > 100 µM | OVCAR-4 80.5 µM | RPMI-8226 88.3 µM | SF-539 > 100 µM | SK-MEL-5 > 100 µM | SK-OV-3 > 100 µM | SN12C > 100 µM | SNB-75 > 100 µM | SR > 100 µM | T47D 33 µM | U-251 > 100 µM
99.3 µM: HCT-15

O=c1c2ccccc2nc(Nc2cccc(Cl)c2)n1/N=C/C=C/c1ccccc1
> 100 µM: HCT-15
inactive: A549 75.3 µM | CCRF-CEM > 100 µM | EKVX 80.7 µM | Hs-578T 62.8 µM | K562 > 100 µM | M14 > 100 µM | MCF7 26.3 µM | MDA-MB-435 > 100 µM | Malme-3M > 100 µM | OVCAR-4 45.5 µM | RPMI-8226 > 100 µM | SF-539 35.7 µM | SK-MEL-5 89.3 µM | SK-OV-3 70 µM | SN12C 52.6 µM | SNB-75 45.4 µM | SR 29.6 µM | T47D 64.9 µM | U-251 28.8 µM

CC(C)(C)OC(=O)NC1CC2(C=C(Br)C(=O)C(Br)=C2)OC1=O (configuration not stated)
active: CCRF-CEM 0.165 µM | RPMI-8226 0.968 µM | SR 0.955 µM | T47D 0.536 µM
7.13 µM: HCT-15
inactive: A549 20.2 µM | EKVX 12.9 µM | Hs-578T 22 µM | K562 2.56 µM | M14 7.14 µM | MCF7 11.6 µM | MDA-MB-435 7.71 µM | Malme-3M 6.24 µM | OVCAR-4 9.84 µM | SF-539 18.7 µM | SK-MEL-5 16.4 µM | SK-OV-3 17.3 µM | SN12C 7.33 µM | SNB-75 21.5 µM | U-251 17.4 µM

CC(C)(N)CO[C@H]1C[C@H]2CC[C@@]1(C)C2(C)C
inactive: A549 38.5 µM | CCRF-CEM 25.2 µM | EKVX 28.3 µM | Hs-578T 27.5 µM | K562 18.2 µM | M14 16 µM | MCF7 19.4 µM | MDA-MB-435 16.3 µM | Malme-3M 18.2 µM | OVCAR-4 23.1 µM | RPMI-8226 15.7 µM | SF-539 22.4 µM | SK-MEL-5 18.2 µM | SK-OV-3 27.8 µM | SN12C 39.9 µM | SNB-75 14.2 µM | SR 11.9 µM | T47D 16 µM | U-251 18.1 µM
19.8 µM: HCT-15

OCCN(CCO)c1ccc2c(C(F)(F)F)cc(C(F)(F)F)nc2n1
> 86.5 µM: HCT-15
inactive: A549 > 77.3 µM | CCRF-CEM > 100 µM | EKVX > 100 µM | Hs-578T > 100 µM | K562 > 100 µM | M14 > 100 µM | MCF7 > 100 µM | MDA-MB-435 > 100 µM | Malme-3M > 100 µM | OVCAR-4 > 100 µM | RPMI-8226 > 100 µM | SF-539 > 100 µM | SK-MEL-5 95.7 µM | SK-OV-3 > 100 µM | SN12C > 100 µM | SNB-75 > 100 µM | SR > 100 µM | T47D > 100 µM | U-251 > 100 µM

CC1CC(C)C(C#N)N(C)c2ccccc21 (configuration not stated)
inactive: A549 > 100 µM | CCRF-CEM 51.8 µM | EKVX > 100 µM | Hs-578T > 100 µM | K562 87.9 µM | M14 > 100 µM | MCF7 81.3 µM | MDA-MB-435 69.2 µM | Malme-3M > 100 µM | OVCAR-4 > 100 µM | RPMI-8226 37.2 µM | SF-539 > 100 µM | SK-MEL-5 37.7 µM | SK-OV-3 > 100 µM | SN12C > 100 µM | SNB-75 > 100 µM | SR 25.6 µM | T47D > 100 µM
> 100 µM: HCT-15

O=C1Nc2ccccc2/C1=N\c1cccc2ncccc12
68.1 µM: HCT-15
inactive: A549 81.5 µM | EKVX 19.1 µM | Hs-578T 39.1 µM | K562 34 µM | M14 > 100 µM | MCF7 50.5 µM | MDA-MB-435 20 µM | Malme-3M > 100 µM | OVCAR-4 68.9 µM | RPMI-8226 36.5 µM | SF-539 > 100 µM | SK-MEL-5 67 µM | SK-OV-3 26.7 µM | SN12C > 100 µM | SNB-75 94.8 µM | SR 31.6 µM | T47D > 100 µM | U-251 67.5 µM

C/C(=C\CO)CC/C=C(\C)CNc1c(F)c(F)c(F)c(F)c1F
30.2 µM: HCT-15
inactive: A549 28.7 µM | CCRF-CEM 28.1 µM | EKVX 30.7 µM | Hs-578T 33.7 µM | K562 33 µM | M14 38.2 µM | MCF7 29.2 µM | MDA-MB-435 22.9 µM | Malme-3M 27.4 µM | OVCAR-4 44.5 µM | RPMI-8226 14 µM | SF-539 20.8 µM | SK-MEL-5 15.8 µM | SK-OV-3 63.8 µM | SN12C 20.2 µM | SNB-75 28.1 µM | SR 28.3 µM | T47D 61.2 µM | U-251 24.3 µM

O=C(O)c1c(-c2ccccc2)c(=O)[nH]c2ccccc12
inactive: A549 > 100 µM | CCRF-CEM > 100 µM | EKVX > 100 µM | Hs-578T > 100 µM | K562 > 100 µM | M14 > 100 µM | MCF7 > 100 µM | MDA-MB-435 > 100 µM | Malme-3M > 100 µM | OVCAR-4 > 100 µM | RPMI-8226 > 100 µM | SK-MEL-5 > 100 µM | SK-OV-3 > 100 µM | SN12C > 100 µM | SNB-75 > 100 µM | SR > 100 µM | T47D > 100 µM | U-251 > 100 µM
> 100 µM: HCT-15

COC1=CC(=O)C2=C(C1=O)[C@H]1CC[C@]3(C)C(=O)CC[C@H]3[C@@H]1CC2
inactive: A549 45.3 µM | CCRF-CEM 3.62 µM | EKVX 16.7 µM | Hs-578T 28.5 µM | K562 33.6 µM | M14 30.4 µM | MCF7 19 µM | MDA-MB-435 19.8 µM | OVCAR-4 15.8 µM | RPMI-8226 26.1 µM | SF-539 19.6 µM | SK-MEL-5 18.5 µM | SK-OV-3 > 100 µM | SN12C 21.4 µM | SNB-75 > 100 µM | SR 34.9 µM | T47D 22.8 µM | U-251 32.2 µM
27.2 µM: HCT-15
